Patent US6787670B1, “Glyoxyl acid amides, method for producing them and their use for controlling harmful organisms” (priority 1999, dated 2004)
Like-named read-outs stand apart in the source and are kept apart here.

What was measured:
Assay type in all cases: in vivo
Phytophthora infestans = experiment: whole plant or invertebrate; conditions: 100% = no infection; for efficacy in %: tomato plants, protective spray, application rate 50 g/ha, evaluation 3 days after inoculation; for pest or weed control at 50 g/ha: Phytophthora infestans, in Solanum lycopersicum, 72 h, read-out: efficacy in %, tomato plants, protective spray, application rate 50 g/ha, evaluation 3 days after inoculation
Alternaria solani = experiment: Alternaria test (tomato)/protective; conditions: tomato plants, protective spray, application rate 750 g/ha, evaluation 3 days after inoculation; 100% = no infection
Method: Alternaria Test (Tomato)/Protective
Solvent: 50 parts by weight of N,N-dimethylformamide
Emulsifier: 1.2 parts by weight of alkylaryl polyglycol ether
One day after the treatment, the plants are inoculated with a spore suspension of Alternaria solani. The plants then stand at 100% rel. atmospheric humidity and a temperature of 20° C.
Evaluation is carried out 3 days after the inoculation.

Plasmopara viticola = experiment: Plasmopara test (grapevine)/protective; conditions: 144 h
[1] = read-out: efficacy in %, grapevine plants, protective spray, application rate 50 g/ha, evaluation 6 days after inoculation, 100% = no infection
[2] = grapevine plants, protective spray, application rate 50 g/ha, evaluation 6 days after inoculation, 100% = no infection, read-out: efficacy in %

For `COCCOc1ccc(CCNC(=O)/C(=N/OC)c2ccc3c(c2)CCCC3)cc1OC` [Example 3], which efficacy in % (Phytophthora infestans) is on record?
Its efficacy in % is 92%.

How did the efficacy in % (Alternaria solani) turn out when `CO/N=C(\C(=O)NCCc1ccc(OCC(C)C)c(OC)c1)c1ccc2c(c1)CCCC2` [Example 45] was run?
The efficacy in % was 95%.

How did the efficacy in % (Alternaria solani) turn out when `CCCCOc1ccc(CCNC(=O)/C(=N\OC)c2ccc3c(c2)CCCC3)cc1OC` [Example 48] was run?
The efficacy in % was 95%.

For `CO/N=C(\C(=O)NCCc1ccc(OCC(C)C)c(OC)c1)c1ccc2c(c1)CCCC2` [Example 49], which efficacy in % (Alternaria solani) is on record?
Its efficacy in % is 90%.

`C=CCOc1ccc(CCNC(=O)/C(=N\OC)c2ccc(Br)cc2)cc1OC` [Example 52] was tested. Which efficacy in % (Phytophthora infestans) did it give?
Its efficacy in % is 100%.

`CCOc1cc(CCNC(=O)/C(=N\OC)c2ccc3c(c2)CCCC3)ccc1OC` [Example 52] was tested. Which pest or weed control at 50 g/ha (Plasmopara viticola; read-out: efficacy in %) did it give?
The pest or weed control at 50 g/ha was 93%.

Which pest or weed control at 50 g/ha (Phytophthora infestans) does the source give for `C=CCOc1ccc(CCNC(=O)/C(=N\OC)c2ccc3c(c2)CCCC3)cc1OC` [Example 57] here?
Its pest or weed control at 50 g/ha is 99%.

How did the pest or weed control at 50 g/ha (Phytophthora infestans) turn out when `CCC(=O)COc1ccc(CCNC(=O)/C(=N\OC)c2ccc3c(c2)CCCC3)cc1OC` [Example 60] was run?
Its pest or weed control at 50 g/ha is 89%.

What does the source list for `CCc1ccc(/C(=N/OC)C(=O)NCCc2ccc(OC(C)C)c(OC)c2)cc1` [Example 60]?
pest or weed control at 50 g/ha (Phytophthora infestans): ≥ 89%; pest or weed control at 50 g/ha (Plasmopara viticola; [1]): ≥ 83%

With `COCCOc1ccc(CCNC(=O)/C(=N\OC)c2ccc(Cl)cc2)cc1OC` [Example 60] as the compound, how does the pest or weed control at 50 g/ha (Plasmopara viticola; [2]) read?
Its pest or weed control at 50 g/ha is 96%.

Which pest or weed control at 50 g/ha (Phytophthora infestans) does the source give for `CCCOc1ccc(CCNC(=O)/C(=N\OC)c2ccc(Br)cc2)cc1OC` [Example 61] here?
Its pest or weed control at 50 g/ha is 94%.

Which pest or weed control at 50 g/ha (Phytophthora infestans) does the source give for `CO/N=C(\C(=O)NCCc1ccc(OC(C)C)c(OC)c1)c1ccc2c(c1)CCCC2` [Example 61] here?
Its pest or weed control at 50 g/ha is no less than 89%.

Which pest or weed control at 50 g/ha (Phytophthora infestans) does the source give for `CCC(C)Oc1ccc(CCNC(=O)/C(=N\OC)c2ccc(Cl)cc2)cc1OC` (stereo not shown) [Example 62] here?
Its pest or weed control at 50 g/ha is 89%.

Which pest or weed control at 50 g/ha (Plasmopara viticola; read-out: efficacy in %) does the source give for `C=CCOc1ccc(CCNC(=O)/C(=N\OC)c2ccc(Br)cc2)cc1OC` [Example 63] here?
The pest or weed control at 50 g/ha was 99%.

How did the efficacy in % (Phytophthora infestans; listed as drawing 53) turn out when `CO/N=C(\C(=O)NCCc1ccc(OC(C)C)c(OC)c1)c1ccc2c(c1)CCCC2` [Example 63] was run?
Its efficacy in % is 94%.

With `CCC(C)Oc1ccc(CCNC(=O)/C(=N\OC)c2ccc3c(c2)CCC3)cc1OC` (stereo not shown) [Example 65] as the compound, how does the pest or weed control at 50 g/ha (Phytophthora infestans) read?
The pest or weed control at 50 g/ha was 94%.

For `COCCOc1ccc(CCNC(=O)/C(=N\OC)c2ccc3c(c2)CCCC3)cc1OC` [Example 65], which pest or weed control at 50 g/ha (Plasmopara viticola; read-out: efficacy in %) is on record?
Its pest or weed control at 50 g/ha is 93%.

With `CCC(=O)COc1ccc(CCNC(=O)/C(=N\OC)c2ccc3c(c2)CCCC3)cc1OC` [Example 100] as the compound, how does the pest or weed control at 50 g/ha (Plasmopara viticola; [2]) read?
Its pest or weed control at 50 g/ha is 94%.

For `CCOc1cc(CCNC(=O)/C(=N\OC)c2ccc3c(c2)CCCC3)ccc1OC` [Example 100], which pest or weed control at 50 g/ha (Plasmopara viticola; [1]) is on record?
Its pest or weed control at 50 g/ha is no less than 83%.

How did the pest or weed control at 50 g/ha (Phytophthora infestans) turn out when `CO/N=C(\C(=O)NCCc1ccc(OC(C)C)c(OC)c1)c1ccc(C)cc1` [Example 107] was run?
Its pest or weed control at 50 g/ha is 95%.

How did the pest or weed control at 50 g/ha (Phytophthora infestans) turn out when `COCCOc1ccc(CCNC(=O)/C(=N/OC)c2ccc3c(c2)CCCC3)cc1OC` [Example 107] was run?
Its pest or weed control at 50 g/ha is no less than 89%.

`CCC(C)Oc1ccc(CCNC(=O)/C(=N\OC)c2ccc(Cl)cc2)cc1OC` (stereo not shown) [Example 111] was tested. Which pest or weed control at 50 g/ha (Plasmopara viticola; [2]) did it give?
Its pest or weed control at 50 g/ha is 83%.

Which pest or weed control at 50 g/ha (Plasmopara viticola; [2]) does the source give for `CCC(C)Oc1ccc(CCNC(=O)/C(=N\OC)c2ccc3c(c2)CCC3)cc1OC` (stereo not shown) [Example 113] here?
The pest or weed control at 50 g/ha was 94%.

How did the efficacy in % (Phytophthora infestans) turn out when `CCc1ccc(/C(=N/OC)C(=O)NCCc2ccc(OC(C)C)c(OC)c2)cc1` [Example 113] was run?
The efficacy in % was 94%.

How did the pest or weed control at 50 g/ha (Phytophthora infestans) turn out when `C=CCOc1ccc(CCNC(=O)/C(=N\OC)c2ccc(Br)cc2)cc1OC` [Example 115] was run?
Its pest or weed control at 50 g/ha is no less than 89%.

And the pest or weed control at 50 g/ha (Plasmopara viticola; [1])?
Its pest or weed control at 50 g/ha is no less than 83%.

How did the pest or weed control at 50 g/ha (Plasmopara viticola; read-out: efficacy in %) turn out when `CCc1ccc(/C(=N/OC)C(=O)NCCc2ccc(OC(C)C)c(OC)c2)cc1` [Example 115] was run?
Its pest or weed control at 50 g/ha is 87%.

`CO/N=C(\C(=O)NCCc1ccc(OC(C)C)c(OC)c1)c1ccc2c(c1)CCC2` [Example 115] was tested. Which pest or weed control at 50 g/ha (Phytophthora infestans) did it give?
The pest or weed control at 50 g/ha was 94%.

`CO/N=C(\C(=O)NCCc1ccc(OC(C)C)c(OC)c1)c1ccc2c(c1)CCC2` [Example 116] was tested. Which pest or weed control at 50 g/ha (Plasmopara viticola; [2]) did it give?
Its pest or weed control at 50 g/ha is 100%.

For `CO/N=C(\C(=O)NCCc1ccc(OC(C)C)c(OC)c1)c1ccc2c(c1)CCCC2` [Example 116], which efficacy in % (Phytophthora infestans; listed as drawing 58) is on record?
The efficacy in % was 94%.
